# Results: patent publication US9765115B2, “Inhibitors of metastasis, methods of generating such inhibitors and their therapeutic applications” (Board of Supervisors of Louisiana State University acting …, priority 2011, dated 2017)
# Substitutions are numbered along the chain they refer to. Entries after “also recorded” stand apart in the source; their conditions may differ.
# Key:
# Format in all cases: cell-based
# CTR-ZO-1 interaction [1] = biological target: T1, CTR-ZO-1 interaction (Homo sapiens, UniProt P30988); test: CTR-ZO-1 co-immunoprecipitation; conditions: for co-precipitation of ZO-1 by CTRwt: 3 min, PC-3 cells
# T1 construct: PCR generated full length CTRwt and CTRΔESS cDNAs were cloned directionally into pcDNA3.1 mammalian expression vector; FLAG (N); expressed in transfected cells; host or cells: PC-31 / PC-3 cells stably expressing FLAG-CTRwt; ZO-1 is the cells' own
# T1 sequence (P30988 25-474): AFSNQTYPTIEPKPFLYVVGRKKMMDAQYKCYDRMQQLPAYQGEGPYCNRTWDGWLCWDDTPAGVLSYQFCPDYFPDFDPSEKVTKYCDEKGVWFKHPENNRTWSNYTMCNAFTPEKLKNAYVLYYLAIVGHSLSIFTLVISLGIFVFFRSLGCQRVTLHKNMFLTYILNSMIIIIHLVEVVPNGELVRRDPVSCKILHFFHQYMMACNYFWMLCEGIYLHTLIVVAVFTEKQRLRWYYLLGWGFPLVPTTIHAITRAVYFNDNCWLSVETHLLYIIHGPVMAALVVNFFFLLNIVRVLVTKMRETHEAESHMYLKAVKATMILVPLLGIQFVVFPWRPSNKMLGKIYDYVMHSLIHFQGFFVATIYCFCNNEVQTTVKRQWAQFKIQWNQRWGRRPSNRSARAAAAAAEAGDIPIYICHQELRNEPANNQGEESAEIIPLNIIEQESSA
# Procedure: (§1) Serum-starved PC-31-V, PC-31-CTRwt or PC-31-CTRΔESS cells (2×10^6 per 100 mm dish) were stimulated with or without 50 nM CT for 3 min, washed, and lysed in the IP buffer as previously described (von Zastrow et al., 1994). CTR in normalized lysate proteins was immunoprecipitated with anti-FLAG EZ-view beads (Sigma Chemical Co., St. Louis, Mo.), and eluted with FLAG peptide (600 μg/ml in PBS). CTR immunoprecipitates were processed for ZO-1 immunoblotting. To control for protein loading and transfer, the blots were stripped and reprobed with immunoprecipitating antibody.
# (§2) PC-31 cells stably expressing either FLAG-CTRwt or FLAGCTRΔESS were treated with or without CT for 3 min. The analysis of FLAG-CTR IPs confirmed that only FLAG-CTRwt, but not FLAG-CTRΔESS, co-precipitated ZO-1 (FIG. 3B). […] The effect of multiple CT concentrations on CTR-ZO-1 co-precipitation was tested in PC-3 cells. […] However, co-precipitation of ZO-1 by CTRwt was strong in PC-3 cells stimulated with 10 nM CT, and was even stronger in the cells receiving 100 nM CT.
# (§3) As shown above, CTR binds to ZO-1 through PDZ interaction (i.e. PDZ ligand on C-tail of CTR binds to the PDZ domain of ZO-1). To attenuate this binding, ZO-1 was saturated with a small C-terminal peptide of CTR sequence containing the PDZ-binding motif. Since ZO-1 is an intracellular membrane protein, the interfering peptide was delivered inside the plasma membrane. It has been shown that trans-activating transcriptional activator (TAT) protein (86-mer polypeptide) from HIV-1 enters mammalian cells when added to the surrounding media (Frankel et al., 1988; Green et al., 1989). Certain small regions of such proteins (10-16-mers) called protein transduction domains (PTDs), also efficiently traverse biological membranes (Elliott et al., 1997). Therefore, a fusion peptide Pep 1 was synthesized of TAT-peptide sequences of HIV virus and CTR-C(N-[…]-C (SEQ ID NO:2), CTR-C sequence underlined). The first experiment was to see if Pep I binds to ZO-1 in reversible fashion. For this, amino acid Y in Pep I was labeled with ^125I, and the binding with ZO-1 analyzed in the presence/absence of unlabeled Pep I (1000×; 20 μM). PC-3CTR-ZO-1-MYC cells were first incubated with unlabeled Pep I or control peptide (20 μM) for 5 min. The cells were then incubated with ^125I-pep I or C for 25 min. The cells were then washed in IP buffer, treated with DSP, and lysed. ZO-1 IPs were obtained, fractionated on SDS-PAGE, and autoradiographed. […] Next, whether Pep I competes with CTR for ZO-1 binding was tested. For this, PC-3-CTR-wt cells were treated with CT (50 nM) and or Pep I (50 μM) for 15 min. The CTR IPs were then immunoblotted and probed for ZO-1 immunoreactivity. […] Next, the biological impact of this phenomenon was examined by testing the effect of Pep I on CTR-stimulated invasion.
# CTR-ZO-1 interaction [2] = biological target: T2, CTR-ZO-1 interaction (Homo sapiens, UniProt P30988, E471A/S472A/S473A); test: CTR-ZO-1 co-immunoprecipitation; conditions: all CT concentrations
# T2 construct: PCR generated full length CTRwt and CTRΔESS cDNAs were cloned directionally into pcDNA3.1 mammalian expression vector; FLAG (N); expressed in transfected cells; host or cells: PC-31 / PC-3 cells stably expressing FLAG-CTRwt; ZO-1 is the cells' own
# T2 sequence (P30988 with tags, fused parts or gaps): T1 sequence (P30988 25-474) with E447A, S448A, S449A
# Procedure: as §1, §2, §3
# PC-3CTRwt cells = test: Cell adhesion on culture dishes; conditions: 50 nM CT, 1 hour
# Procedure: Confluent cultures of PC-31-CTR cells were tested for cell adhesion after treatment with diluent (C), CT (50 nM), mPKI (myristoylated PKA inhibitory peptide (100 nM) or mPKI+CT. The number of adherent cells was determined by absorbance after 1 hour and are shown in the right graph.
# To understand the significance of CT-induced, PKA-dependent disassembly of TJs in PC cell adhesion and invasion, the action of CT was examined on TER, PCP, cell adhesion and invasion in PC-3CTRwt cells in the presence/absence of mPKI. […] Similarly, mPKI abrogated the actions of CT on PCP and invasion (FIGS. 20B and 20C respectively). Next, the adhesion of PC-3CTRwt cells was examined on culture dishes.
substance,measurement,setting,value
calcitonin [CT],co-precipitation of ZO-1 by CTRwt,CTR-ZO-1 interaction [1]; 1 nM CT,barely detectable
same,co-precipitation of ZO-1 by CTRwt,CTR-ZO-1 interaction [1]; 10 nM CT,strong
same,"co-precipitation of ZO-1 with CTRwt, activated versus dormant",CTR-ZO-1 interaction [1]; CT 50 nM,much more efficiently; also recorded: increased
same,co-precipitation of ZO-1 by CTRΔESS,CTR-ZO-1 interaction [2],not co-precipitated
same,adhesion of the cells to plastic matrix,PC-3CTRwt cells,remarkable decline
